Results on 56 compounds are retold here after ChEMBL document CHEMBL1141069, “Impact of induced fit on ligand binding to the androgen receptor: a multidimensional QSAR study to predict endocrine-disrupting effects of environmental chemicals” (J Med Chem, 2005).

The IC50 is the concentration at which inhibition is half-maximal.

This test concerns the target T1, Androgen receptor (Rattus norvegicus, UniProt P15207).
T1 sequence (P15207 whole entry): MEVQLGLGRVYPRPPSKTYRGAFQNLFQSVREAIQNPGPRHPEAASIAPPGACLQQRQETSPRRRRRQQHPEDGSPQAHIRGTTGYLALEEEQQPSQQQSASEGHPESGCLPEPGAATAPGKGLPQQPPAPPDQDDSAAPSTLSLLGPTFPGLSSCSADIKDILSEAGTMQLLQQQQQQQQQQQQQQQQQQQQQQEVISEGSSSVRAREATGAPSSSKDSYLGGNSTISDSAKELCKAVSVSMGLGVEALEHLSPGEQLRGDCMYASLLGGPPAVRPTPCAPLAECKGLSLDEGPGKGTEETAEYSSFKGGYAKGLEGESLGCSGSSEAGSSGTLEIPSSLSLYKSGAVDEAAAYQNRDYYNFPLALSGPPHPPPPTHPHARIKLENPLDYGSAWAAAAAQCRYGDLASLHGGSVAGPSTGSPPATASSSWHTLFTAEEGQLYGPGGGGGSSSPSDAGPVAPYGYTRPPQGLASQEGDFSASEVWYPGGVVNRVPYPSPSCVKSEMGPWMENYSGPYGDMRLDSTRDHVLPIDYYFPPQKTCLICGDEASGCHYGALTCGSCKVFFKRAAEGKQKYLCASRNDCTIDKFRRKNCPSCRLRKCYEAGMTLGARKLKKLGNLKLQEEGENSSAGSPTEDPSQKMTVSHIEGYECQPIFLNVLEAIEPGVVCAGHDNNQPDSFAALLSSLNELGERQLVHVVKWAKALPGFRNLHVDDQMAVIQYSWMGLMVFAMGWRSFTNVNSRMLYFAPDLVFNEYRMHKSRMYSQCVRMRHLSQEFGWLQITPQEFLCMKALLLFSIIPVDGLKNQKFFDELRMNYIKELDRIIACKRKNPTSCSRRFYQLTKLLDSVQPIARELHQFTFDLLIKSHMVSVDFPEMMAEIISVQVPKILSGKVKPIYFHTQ
`Clc1ccc(-c2ccc(Cl)cc2Cl)c(Cl)c1` gave an IC50 of 17 µM. For `C[C@]12CC[C@@H]3c4ccc(O)c(O)c4CC[C@H]3[C@@H]1CC[C@@H]2O` the value was 2.57 µM; for `CCC(c1ccc(O)c(O)c1)C(CC)c1ccc(O)c(O)c1` (stereo unspecified), 37.2 µM.

`Cc1ccc2c(c1)CC[C@@H]1[C@@H]2CC[C@]2(C)[C@@H](O)[C@@](C)(O)C[C@@H]12` gave a half-maximal inhibitory concentration (IC50) of 37.2 µM. For `Cc1ccc2c(c1)CC[C@@H]1[C@@H]2CC[C@]2(C)[C@@H](O)[C@H](O)C[C@@H]12` the value was 53.7 µM; for `c1ccc([C@H]2COC[C@H]2c2ccccc2)cc1`, 28.8 µM.

For `CCCCCCCOc1ccc(O)cc1`, the IC50 was 14.8 µM. For `CCCCCCCCCc1ccc(OCCOCCO)cc1`, half-maximal inhibition (IC50) required 18.2 µM.

With `O=C(c1ccccc1)c1ccc(O)cc1`, inhibition was half-maximal at 182 µM (IC50). The compound `C[C@]12CC[C@@H](O)C[C@@H]1CC[C@@H]1[C@@H]2CC[C@]2(C)C(O)CC[C@@H]12` (stereo partly specified) showed an IC50 of 2 µM. For the compound `C[C@]12CC[C@@H]3c4ccccc4CC[C@H]3[C@@H]1CC[C@@H]2O`, 0.0891 µM corresponded to half-maximal inhibition (IC50). In the case of `O=C(c1ccc(O)cc1)c1ccc(O)cc1`, half-maximal inhibition (IC50) was put at 145 µM. Then `COc1ccc(C(=C(Cl)Cl)c2ccc(OC)cc2)cc1`, with 49 µM; and `COc1ccc(C(=C(Cl)Cl)c2ccc(O)cc2)cc1`, with 20.4 µM. Then `O=C1CC(c2ccccc2)Oc2ccc(O)cc21` (stereo unspecified), with 18.6 µM; and `Clc1ccc(-c2ccccc2Cl)cc1`, with 16.2 µM. Compound `Cl/C=C(\c1ccc(Cl)cc1)c1ccccc1Cl` gave a half-inhibitory concentration (IC50) of 10.5 µM. For `CCC(c1ccc(O)cc1)C(CC)c1ccc(OC)cc1` (stereo unspecified) the value was 12.9 µM; for `CC/C(=C(\c1ccc(O)cc1)c1ccc(OCCN(C)C)cc1)c1ccccc1`, 9.33 µM. For `C[C@@]12CCC[C@H]1[C@@H]1CCc3cc(O)ccc3[C@H]1CC2`, the IC50 was 41.7 µM. `O=C1C[C@@H]2C(=O)CC[C@H]2[C@@H]2CC[C@H]3CCCC[C@@H]3[C@@H]12` had an IC50 of 0.0891 µM. For `Oc1ccc(-c2cc(Cl)c(Cl)c(Cl)c2Cl)cc1` the value was 16.2 µM; for `C[C@]12CCCC[C@@H]1CC[C@@H]1[C@@H]2CC[C@]2(C)[C@@H](O)CC[C@@H]12`, 0.011 µM.

Compound `C[C@]12CC[C@@H]3c4cc(O)c(O)cc4CC[C@H]3[C@@H]1CC[C@@H]2O` showed a half-inhibitory concentration (IC50) of 8.51 µM. Then `Oc1c(Cl)cc(-c2cc(Cl)c(O)c(Cl)c2)cc1Cl`, with 38 µM; and `CC1CC2=CC(=O)CC[C@@H]2[C@H]2CC[C@@]3(C)[C@@H](CC[C@]3(C)O)[C@H]12` (single isomer, unassigned) [MIBOLERONE], with 0.00166 µM. For `C[C@H]1CCCC(=O)CCCCCc2cc(O)cc(O)c2C(=O)O1` (stereo in doubt; form 1) [ZEARALANONE] the value was 42.7 µM; for `C[C@H]1CCCC(=O)CCCCCc2cc(O)cc(O)c2C(=O)O1` (stereo in doubt; form 2) [ZEARALANONE], 10 µM; for `O=C(O)COc1cc(Cl)c(Cl)cc1Cl` [2,4,5-TRICHLOROPHENOXYACETIC ACID], 457 µM. Then `O=C1CC(c2ccc(O)cc2)Oc2ccccc21` (stereo unspecified) [4'-HYDROXY-FLAVANONE], with 57.5 µM; and `O=C(/C=C/c1ccccc1)c1ccc(O)cc1` [4'-HYDROXYCHALCONE], with 57.5 µM; and `O=C(/C=C/c1ccc(O)cc1)c1ccccc1` [4-HYDROXYCHALCONE], with 47.9 µM. Compound `O=c1cc(-c2ccccc2)oc2ccc(O)cc12` [6-HYDROXYFLAVONE] showed an IC50 of 182 µM. For `O=c1cc(-c2ccccc2)oc2cc(O)ccc12` [7-HYDROXYFLAVONE] the value was greater than 42.7 µM; for `Oc1ccc(/C=C/c2ccccc2)cc1` [(E)-4-STYRYLPHENOL], 41.7 µM. Then `C[C@]12CCC(=O)C=C1CC[C@@H]1[C@@H]2[C@@H](O)C[C@]2(C=O)[C@@H](C(=O)CO)CC[C@@H]12` [ALDOSTERONE], with greater than 42.7 µM; and `Oc1ccc([C@H]2COc3cc(O)ccc3C2)cc1` [AUS-131], with 74.1 µM. `O=C(c1ccccc1)c1ccccc1` [BENZOPHENONE]: inhibition was half-maximal at 129 µM (IC50). For `CC(C)(c1ccc(O)cc1)c1ccc(O)cc1` [BISPHENOL A] the value was 74.1 µM.

The compound `O=C(/C=C/c1ccccc1)c1ccccc1` [CHALCONE] gave an IC50 of 64.6 µM. Then `ClC1=C(Cl)C2(Cl)C3C(Cl)C(Cl)CC3C1(Cl)C2(Cl)Cl` (stereo unspecified) [CHLORDANE], with 10 µM; and `CCN(CC)CCOc1ccc(/C(=C(\Cl)c2ccccc2)c2ccccc2)cc1` [CLOMIPHENE], with 13.5 µM.

Turning to `C[C@]12CC[C@H]3[C@@H](CCC4(OC(=O)c5ccccc5)CC(=O)CC[C@]34C)[C@@H]1CC[C@@H]2O` (stereo partly specified) [DHT BENZOATE], the half-inhibitory concentration (IC50) was 0.257 µM. For the compound `COc1cc(C(=C(Cl)Cl)c2ccc(O)cc2)ccc1O` [DIHYDROXYMETHOXYCHLOROLEFIN], the half-maximal inhibitory concentration (IC50) is 6.31 µM. With `C/C(=C(/C)c1ccc(O)cc1)c1ccc(O)cc1` [DIMETHYLSTILBESTROL], the 50% inhibitory concentration (IC50) is 14.1 µM.

`O=S1OCC2C(CO1)C1(Cl)C(Cl)=C(Cl)C2(Cl)C1(Cl)Cl` (stereo unspecified) [ENDOSULFAN] had a 50% inhibitory concentration (IC50) of 23.4 µM.

`O=C1CC(c2ccccc2)Oc2ccccc21` (stereo unspecified) [FLAVANONE] gave an IC50 of 55 µM. For `O=c1cc(-c2ccccc2)oc2ccccc12` [FLAVONE] the value was 77.6 µM; for `O=c1c(-c2ccc(O)cc2)coc2cc(O)cc(O)c12` [GENISTEIN], 85.1 µM. Regarding `C[C@]12CCC(=O)C=C1CC[C@@H]1[C@@H]2[C@@H](O)C[C@@]2(C)[C@H]1CC[C@]2(O)C(=O)CO` [HYDROCORTISONE], the half-maximal inhibitory concentration (IC50) was 182 µM. For `Oc1ccc(OCc2ccccc2)cc1` [MONOBENZONE] the value was 234 µM; for `COc1ccc2c(c1)CCC(c1ccccc1)=C2c1ccc(OCCN2CCCC2)cc1` [NAFOXIDINE], 12.9 µM; for `ClC(Cl)=C(c1ccc(Cl)cc1)c1ccccc1Cl` [O,P'-DDE (1,1-(O,P'-DICHLORODIPHENYL)-2,2 DICHLOROETHENE)], 20.4 µM. `Oc1ccc(/C=C/c2ccc(O)cc2)cc1` [TRANS-4,4'-DIHYDROXYSTILBENE]: it took 83.2 µM to reach half-maximal inhibition (IC50). In turn, `C[C@]12C=CC3=C4CCC(=O)C=C4CCC3C1CC[C@@H]2O` (stereo partly specified) [TRENBOLONE] had an IC50 of 0.00263 µM. Then `COc1cc(C=O)ccc1O` [VANILLIN], with greater than 427 µM.
